Data as given in article PMC3038857, “Using Nuclear Receptor Activity to Stratify Hepatocarcinogens” (PLoS ONE, 2011).

Assays:
PXR (NR1I2) [1] = target: T1, PXR (NR1I2) (Homo sapiens, UniProt O75469); assay: ATG_PXR_TRANS: Factorial reporter gene assay (HepG2); type: cell-based; set-up: endogenous in cells; host or cells: HepG2; details: HepG2 reporter
T1 sequence (O75469 1-434): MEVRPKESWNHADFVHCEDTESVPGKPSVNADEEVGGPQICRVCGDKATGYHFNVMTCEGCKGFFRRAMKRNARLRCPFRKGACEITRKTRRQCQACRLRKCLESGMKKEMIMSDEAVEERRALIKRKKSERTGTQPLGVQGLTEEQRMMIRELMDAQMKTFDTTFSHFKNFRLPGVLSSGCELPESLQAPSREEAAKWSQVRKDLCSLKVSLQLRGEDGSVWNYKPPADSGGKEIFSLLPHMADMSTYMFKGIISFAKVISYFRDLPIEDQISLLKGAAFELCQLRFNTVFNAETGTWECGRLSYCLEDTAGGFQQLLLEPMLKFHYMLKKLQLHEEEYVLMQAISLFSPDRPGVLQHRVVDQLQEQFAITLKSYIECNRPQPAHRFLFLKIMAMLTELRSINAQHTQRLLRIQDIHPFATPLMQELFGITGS
Method in brief: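 HepG2 cells transfected with multiplexed reporter libraries: cis-acting binding-site reporters (CIS) and a one-hybrid nuclear-receptor trans system (TRANS). Chemicals tested at seven concentrations, starting at the maximum tolerated concentration with three-fold serial dilutions.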

ABCB1 = assay: CLZD_ABCB1: Change in expression of ABCB1 (primary human hepatocytes); type: cell-based; details: 24 hr
Protocol: This is a collection of multiplexed gene expression assays focused on Phase I and II xenobiotic metabolizing enzymes and transporters. Human primary cell cultures were treated with chemicals at 5 concentrations (0.004-40 [drawing 42] M) for 6, 24 and 48 hr. Concentration- and time-response profiles of chemicals were measured by the expression of key nuclear receptor target genes, activities of CYP1A enzymes (EROD), and cell morphology. Fourteen gene targets were monitored by quantitative nuclease protection assay including: six representative cytochrome P-450 genes, four hepatic transporters, three Phase II conjugating enzymes, and one endogenous metabolism gene involved in cholesterol synthesis. The target genes associated with nuclear receptor pathways are as follows: [drawing 43] and [drawing 44] with [drawing 45]; [drawing 46] , [drawing 47] , [drawing 48] , [drawing 49] , [drawing 50] and [drawing 51] with [drawing 52]; [drawing 53] , [drawing 54] , [drawing 55] and [drawing 56] with [drawing 57]; [drawing 58] with [drawing 59]; and [drawing 60] with [drawing 61] . Assays were run in primary human hepatocyte cultures by CellzDirect Invitrogen Inc. (Durham, NC), in collaboration with EPA.
Multiplexed Gene Expression in Human Primary Hepatocytes: This is a collection of multiplexed gene expression assays focused on Phase I and II metabolic enzymes and transporters. […] Fourteen gene targets were monitored by quantitative nuclease protection assay: six representative cytochrome P450 genes, four hepatic transporters, three Phase II conjugating enzymes, and one endogenous metabolism gene involved in cholesterol synthesis. Cells were exposed at 5 concentrations (0.004-40 µM) for 6, 24 or 48 hr. Gene targets are sentinels for five nuclear receptor signaling pathways: AhR, CAR, PXR, FXR, and PPARα. All gene are associated with nuclear receptor pathways: CYP1A1 and CYP1A2 with AHR; ABCB1, ABCG2, CYP2B6, CYP2C9, CYP2C19 and UGT1A1 with CAR; CYP3A4, GSTA2, SLCO1B1 and SULT2A1 with PXR; HMGCS2 with PPARA; and ABCB11 with FXR. […] Detailed description of the methods, data and analysis methods for this dataset will be presented in a separate publication.

Mouse Liver [2] = details: chronic study, mouse liver; ref ToxRefDB; cited from earlier work
Mouse Liver [3] = details: chronic study, mouse liver; ref ToxRefDB; cited from earlier work; remark: listed apart in the source
Rat Liver [4] = details: chronic study, rat liver; ref ToxRefDB; cited from earlier work
PXR (NR1I2) [5] = target: T1, PXR (NR1I2); assay: ATG_PXRE_CIS: Factorial reporter gene assay (HepG2); type: cell-based; set-up: endogenous in cells; host or cells: HepG2; details: HepG2 reporter
Method in brief: (§1)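 Compounds at seven concentrations (top at MTC, threefold serial) were applied to transfected HepG2 hepatoma cells, with PXRE scored by cis-element reporters and ERRg, FXR and PPARg scored by trans one-hybrid nuclear receptor reporters.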

CYP2B6 = assay: CLZD_CYP2B6: Change in expression of CYP2B6 (primary human hepatocytes); type: cell-based; details: 24 hr
Method in brief: (§2)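 Primary human hepatocytes exposed to 5 concentrations (0.004-40 µM) for 6, 24 or 48 hr; transcript levels measured by multiplexed quantitative nuclease protection assay. Markers of nuclear receptor pathways: CYP1A1 (AhR), CYP2B6 and ABCB1 (CAR), CYP3A4 (PXR).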

Rat Liver [6] = details: chronic study, rat liver; ref ToxRefDB; cited from earlier work; remark: listed apart in the source
PXR (NR1I2) [7] = target: T1, PXR (NR1I2); assay: NVS_NR_hPXR: Human PXR Fluormone PXR (SXR) green (cell-free HTS); type: binding
Method in brief: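 Responses were normalized to same-plate solvent controls as percent of neutral control. AC50 values came from Hill-equation fits of concentration-response curves.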

Rat Liver [8] = details: chronic study, rat liver; ref ToxRefDB; cited from earlier work; remark: listed apart in the source
CYP3A4 = assay: CLZD_CYP3A4: Change in expression of CYP3A4 (primary human hepatocytes); type: cell-based; details: 24 hr
Method in brief: as §2

Mouse Liver [9] = details: chronic study, mouse liver; ref ToxRefDB; cited from earlier work; remark: listed apart in the source
PXR Human (NR1I2) = target: T2, PXR Human (NR1I2) (Homo sapiens, UniProt O75469); assay: NCGC_PXR_Agonist_human: GAL4 BLAM Reporter gene assay: PXR Human; type: cell-based; details: agonist mode
T2 sequence (O75469 146-434 limits assumed): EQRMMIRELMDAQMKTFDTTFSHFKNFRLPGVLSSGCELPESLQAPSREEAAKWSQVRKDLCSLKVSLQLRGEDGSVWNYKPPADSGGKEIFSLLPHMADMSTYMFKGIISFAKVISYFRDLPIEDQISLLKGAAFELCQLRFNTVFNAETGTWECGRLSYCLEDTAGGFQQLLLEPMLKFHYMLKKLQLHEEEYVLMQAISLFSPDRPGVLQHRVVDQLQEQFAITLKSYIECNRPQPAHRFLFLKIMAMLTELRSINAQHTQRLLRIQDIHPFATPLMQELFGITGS
Protocol: These assays measure binding constants and enzyme inhibition values for nuclear receptors. The targets include [drawing 67] , [drawing 68] , [drawing 69] , [drawing 70] , [drawing 71] , [drawing 72] , [drawing 73] , [drawing 74] , [drawing 75] and [drawing 76] . Each of the nuclear receptor targets was measured in agonist mode. Assays were run at the NIH Chemical Genomics Center (Rockville, MD).
Cell-based HTS Assays: These assays measuring binding constants and enzyme inhibition values for nuclear receptors. The targets include AR, ER, FXR, LXR, PPARα, PPARδ, PPARγ, RXRα, RXRβ and PXR. Each of the nuclear receptor targets was measured in both agonist and antagonist mode, but the antagonist data is still undergoing analysis due to possible interference between cytotoxicity and assay activity, so antagonist mode data were not used in the present analysis. Assays were run at the NIH Chemical Genomics Center (Rockville, MD) as part of the Tox21 collaboration. […] The R^2 was required to be ≥0.5. Values where only the highest concentration exceeded 50% activity were excluded to eliminate weak or false positives. Detailed description of the methods, data and analysis methods for this dataset will be presented in a separate publication.

CYP1A2 = assay: CLZD_CYP1A2: Change in expression of CYP1A2 (primary human hepatocytes); type: cell-based; details: 24 hr
Method in brief: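 Primary human hepatocyte cultures were exposed to test chemicals at 5 concentrations (0.004-40 µM) for 6, 24 or 48 hr.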

LXRb (NR1H2) = target: T3, LXRb (NR1H2) (Homo sapiens, UniProt P55055); assay: ATG_LXRb_TRANS: Factorial reporter gene assay (HepG2); type: cell-based; details: HepG2 reporter
T3 construct: expressed in transfected cells; host or cells: HepG2
T3 sequence (P55055 1-460): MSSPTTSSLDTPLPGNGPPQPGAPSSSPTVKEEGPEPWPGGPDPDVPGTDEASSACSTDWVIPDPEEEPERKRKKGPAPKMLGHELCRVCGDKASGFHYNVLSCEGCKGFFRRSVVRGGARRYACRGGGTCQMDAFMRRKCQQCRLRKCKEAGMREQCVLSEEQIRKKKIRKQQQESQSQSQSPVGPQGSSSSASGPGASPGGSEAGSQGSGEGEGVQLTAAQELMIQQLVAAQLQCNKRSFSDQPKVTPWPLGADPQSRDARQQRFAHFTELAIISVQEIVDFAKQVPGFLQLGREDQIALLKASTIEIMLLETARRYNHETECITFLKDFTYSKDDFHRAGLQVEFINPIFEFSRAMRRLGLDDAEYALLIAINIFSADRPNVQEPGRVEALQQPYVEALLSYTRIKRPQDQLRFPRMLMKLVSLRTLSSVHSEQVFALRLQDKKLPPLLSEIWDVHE
Protocol: A multiple reporter transcription unit (MRTU) library consisting of 48 transcription factor binding sites was transfected into the HepG2 human liver hepatoma cell line. In addition to the cis-acting reporter genes (CIS), a modification of the approach was used to generate a trans-system (TRANS) with a mammalian one-hybrid assay consisting of an additional 25 MRTU library reporting the activity of nuclear receptor super-family members. […] These assays were performed by Attagene Inc. (Morrisville NC) under contract to EPA.
In addition to the cis-acting reporter genes (CIS), a modification of the approach was used to generate a trans-system (TRANS) with a mammalian one-hybrid assay consisting of an additional 25 MRTU library reporting the activity of nuclear receptor super-family members. […] Chemicals were then tested in the CIS and TRANS assays at seven concentrations starting at the MTC and followed by three-fold serial dilutions. These assays were performed by Attagene Inc. (Morrisville NC) under contract to EPA. Detailed description of the methods, data and analysis methods for this dataset will be presented in a separate publication.

[10] = target: T4, PPARG (peroxisome proliferator-activated receptor gamma) (Homo sapiens, UniProt P37231); assay: ATG_PPARg_TRANS: Factorial reporter gene assay (HepG2); type: cell-based; details: HepG2 reporter
T4 construct: expressed in transfected cells; host or cells: HepG2
T4 sequence (P37231 1-505): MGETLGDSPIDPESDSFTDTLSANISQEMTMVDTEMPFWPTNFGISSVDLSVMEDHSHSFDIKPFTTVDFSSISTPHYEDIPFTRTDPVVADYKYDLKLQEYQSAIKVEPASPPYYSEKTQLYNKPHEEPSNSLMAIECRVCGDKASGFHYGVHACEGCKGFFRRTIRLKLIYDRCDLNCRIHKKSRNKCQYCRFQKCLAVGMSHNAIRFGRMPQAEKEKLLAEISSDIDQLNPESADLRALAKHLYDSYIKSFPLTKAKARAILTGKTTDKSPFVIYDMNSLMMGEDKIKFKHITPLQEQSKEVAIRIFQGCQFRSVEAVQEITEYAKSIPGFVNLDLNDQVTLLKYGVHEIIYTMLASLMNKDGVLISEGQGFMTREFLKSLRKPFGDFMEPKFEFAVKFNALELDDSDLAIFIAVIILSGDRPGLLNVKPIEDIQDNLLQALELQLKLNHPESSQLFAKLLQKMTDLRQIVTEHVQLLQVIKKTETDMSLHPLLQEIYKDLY
Method in brief: as §1

CYP1A1 = assay: CLZD_CYP1A1: Change in expression of CYP1A1 (primary human hepatocytes); type: cell-based; details: 24 hr
Method in brief: as §2

Structure (SMILES)	ATG_PXR_TRANS (PXR (NR1I2) [1])	CLZD_ABCB1_24 (ABCB1)	CHR_Mouse_Liver_3_NeoplasticLesion (Mouse Liver [2])	CHR_Mouse_Liver_1_AnyLesion (Mouse Liver [3])	CHR_Rat_Liver_3_NeoplasticLesion (Rat Liver [4])	ATG_PXRE_CIS (PXR (NR1I2) [5])	CLZD_CYP2B6_24 (CYP2B6)	CHR_Rat_Liver_2_PreneoplasticLesion (Rat Liver [6])	NVS_NR_hPXR (PXR (NR1I2) [7])	CHR_Rat_Liver_1_AnyLesion (Rat Liver [8])	CLZD_CYP3A4_24 (CYP3A4)	CHR_Mouse_Liver_2_PreneoplasticLesion (Mouse Liver [9])	NCGC_PXR_Agonist_human (PXR Human (NR1I2))	CLZD_CYP1A2_24 (CYP1A2)	ATG_LXRb_TRANS (LXRb (NR1H2))	ATG_PPARg_TRANS [10]	CLZD_CYP1A1_24 (CYP1A1)
C#CC(C)(C)NC(=O)c1cc(Cl)cc(Cl)c1 [r265]	4.409	5.227	6	6	0	4.824	5.253	0	4.411	6	4.621	6	4.619				
Cc1cc(C)nc(Nc2ccccc2)n1 [r273]					0		5.27	6		6				4.839	4.237	4.137	4.775
CC/C(=N\OC/C=C/Cl)C1=C(O)CC(C2CCOCC2)CC1=O (stereo not shown) [r295]			6	6	6			6		6		6			4.194		
Cc1[nH]c(=O)n(C(C)(C)C)c(=O)c1Cl [r296]			6	6			5.239					6			4.119		5.327
